One data set has as its target T1, nucleoside hydrolase (Crithidia fasciculata, UniProt Q27546).
T1 construct: nucleoside hydrolase was purified from C. fasciculata as described above; endogenous in cells; host or cells: Crithidia fasciculata cells grown in a 300-liter fermenter
T1 sequence (Q27546 1-315): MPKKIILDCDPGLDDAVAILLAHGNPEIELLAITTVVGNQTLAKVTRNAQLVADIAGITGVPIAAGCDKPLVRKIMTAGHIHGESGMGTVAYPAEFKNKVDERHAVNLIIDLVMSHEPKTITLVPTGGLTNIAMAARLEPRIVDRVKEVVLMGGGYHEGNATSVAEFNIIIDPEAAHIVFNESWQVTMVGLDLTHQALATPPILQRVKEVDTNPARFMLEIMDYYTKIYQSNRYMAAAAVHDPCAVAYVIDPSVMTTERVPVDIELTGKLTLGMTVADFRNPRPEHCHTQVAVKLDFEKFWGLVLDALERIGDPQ
Description: Inhibition of nucleoside hydrolase, inosine hydrolysis monitored at 280 nm, bis-tris pH 7.3. In kind it is biochemical. As for the experimental part: All assays were performed at 30° C. in 50 mM bis-tris buffer at pH 7.3. The substrate for all assays was inosine. Inhibition studies were performed by examining the initial velocity of the hydrolysis of inosine as a function of inosine concentration and (2S)-phenyl-(3S,4R)-dihydroxy-(5R)-hydroxymethylpyrrolidine concentration. A total of 75 velocity measurements were made.
The general protocol for measurement was as follows: various concentrations of inosine and inhibitor in the above buffer were prepared, and 1.0 mL aliquots placed in a quartz cuvette and equilibrated at 30° C. […] The decrease in absorption at 280 nm was monitored over a 10 minute period.

The target of data set [1] is T2, IU-nucleoside hydrolase (Crithidia fasciculata, UniProt Q27546, P2A).
T2 construct: contained the coding region for the enzyme; made in house; host or cells: E. coli BL21 (DE3)pLysS, pET3d plasmid
The experiment in a line: biochemical. In kind it is biochemical, C. fasciculata. Conditions: for inhibition pattern: minimum of four substrate and three inhibitor concentrations. The text has this:
Enzymes. Inosine-uridine nucleoside hydrolase (IU-nucleoside hydrolase) was purified from extracts of E. coli strain BL21 (DE3)pLysS which contained the coding region for the enzyme isolated from C. fasciculata in a pET3d expression plasmid. The DNA coding for the enzyme was placed in the NcoI-BamHI site. This construct gives a Pro2Ala substitution which has no significant effect on the kinetic properties of the purified enzyme. The overexpressed enzyme was purified to apparent homogeneity as previously described (Gopaul, et al. (1996) Biochemistry 35, 5963-5970).
(§1) Enzyme Assays. Initial rate measurements were accomplished at 30° C. in reaction mixtures containing 50 mM potassium phosphate, pH 7.5, or 50 mM Hepes, pH 8.0, and nitrophenylribose or inosine as substrates (Mazella, et al. (1996) J. Am. Chem. Soc. 118, 2111-2112). At pH 7.5 the product p-nitrophenylate anion is present at a concentration which gives a millimolar extinction coefficient of 9.3 cm^-1 at 400 nm. Reaction mixtures with nitrophenylribose as substrate were initiated by the addition of enzyme, and product formation was monitored by continuous recording at 400 nm. With inosine as substrate, the conversion to hypoxanthine was monitored continuously at 280 nm (Parkin, et al. (1991) J. Biol. Chem. 266, 20658-20665). […] The remainder of the inhibitors were analyzed at one fixed substrate concentration and variable inhibitor concentrations. Inhibition constants for IAG-nucleoside hydrolase were established from full kinetic analysis with V and X as inhibitors. […] The remainder of the inhibition constants were characterized by titration of assay mixtures containing a fixed concentration of substrate with variable inhibitor concentrations. […] For Ki determination at a fixed substrate concentration, this approach assumes that substrate and inhibitor compete for the catalytic site.
Inhibitors. Iminoribitol inhibitor were synthesized and purified according to the methods of Furneaux, et al. (Tetrahedron (1997) in press), characterized by NMR, dissolved in H2 O and stored at -20° C. The compounds are enzymatically and chemically stable in H2 O and under conditions of the assay. IU-Nucleoside hydrolase is susceptible to slow-onset tight-binding inhibition under certain conditions (Horenstein & Schramm, (1993b) Biochemistry 32, 9917-9925, Boutellier, et al. (1994) Biochemistry, 33, 3994-4000). However, in the initial reaction rate conditions described here, only the rapidly reversible competition between substrate and inhibitor is being observed. Thus, the reported kinetic constants are dissociation constants which exclude slow-onset binding.

The target of another data set is IAG-nucleoside hydrolase (Trypanosoma brucei, UniProt Q57ZL6). The experiment in a line: Inhibition of IAG-nucleoside hydrolase, initial rates. Conditions: for inhibition pattern: full kinetic analysis; for inhibition at highest concentration tested: 80, 120, 120 and 160 μM II, III, IV and VI respectively, 75 μM inosine; for Km /Ki IAG-nucleoside hydrolase: comparison with inosine. As for the experimental part:
The enzyme was purified to apparent homogeneity as determined by denaturing polyacrylamide gel electrophoresis (Parkin, (1996) J. Biol. Chem. 271, 21713-21719). Some of the studies used the T. brucei brucei enzyme which was overexpressed in E. coli.
as §1, with “concentrations.” for “concentrations. Inhibition constants for IAG-nucleoside hydrolase were established from full kinetic analysis with V and X as inhibitors.”
Inhibitors. Iminoribitol inhibitor were synthesized and purified according to the methods of Furneaux, et al. (Tetrahedron (1997) in press), characterized by NMR, dissolved in H2 O and stored at -20° C.

For data set [2], the target named is T2, IU-nucleoside hydrolase. The conditions noted are these: cited from earlier work.
Substrate in data set [3]: OC[C@H]1O[C@@H](n2cnc3c(O)ncnc32)[C@H](O)[C@@H]1O
Description: purified protein, by the assay type. Conditions: other: inosine as substrate; 30.0 °C.
Description: The IAG-nucleoside hydrolase was purified from the blood-stream form of T. brucei brucei (ILTaT 1.1) grown in sublethally irradiated (650 rads) Sprague-Dawley rats. The enzyme was purified to apparent homogeneity as determined by denaturing polyacrylamide gel electrophoresis (Parkin, (1996) J. Biol. Chem. 271, 21713-21719). Some of the studies used the T. brucei brucei enzyme which was overexpressed in E. coli.
At pH 7.5 the product p-nitrophenylate anion is present at a concentration which gives a millimolar extinction coefficient of 9.3 cm^-1 at 400 nm. Reaction mixtures with nitrophenylribose as substrate were initiated by the addition of enzyme, and product formation was monitored by continuous recording at 400 nm. […] The remainder of the inhibitors were analyzed at one fixed substrate concentration and variable inhibitor concentrations. […] The remainder of the inhibition constants were characterized by titration of assay mixtures containing a fixed concentration of substrate with variable inhibitor concentrations. […] For Ki determination at a fixed substrate concentration, this approach assumes that substrate and inhibitor compete for the catalytic site. In these cases, data were fit to the equation: 1/v=1/kcat +(Km /kcat A)(1+I/Ki)
The compounds are enzymatically and chemically stable in H2 O and under conditions of the assay. […]

[4] abbreviates: KI IU-nucleoside hydrolase, Table V.

Read-outs that look alike come from different tables or passages of the source. A value given as a limit tells only on which side of the number the result lay.

Data on ten molecules can be found in patent US6121296A, “Transition-state inhibitors for nucleoside hydrolase and transferase reactions” (Albert Einstein College of Medicine of Yeshiva University, priority 1998, dated 2000).

T2 sequence (Q27546 whole entry P2A): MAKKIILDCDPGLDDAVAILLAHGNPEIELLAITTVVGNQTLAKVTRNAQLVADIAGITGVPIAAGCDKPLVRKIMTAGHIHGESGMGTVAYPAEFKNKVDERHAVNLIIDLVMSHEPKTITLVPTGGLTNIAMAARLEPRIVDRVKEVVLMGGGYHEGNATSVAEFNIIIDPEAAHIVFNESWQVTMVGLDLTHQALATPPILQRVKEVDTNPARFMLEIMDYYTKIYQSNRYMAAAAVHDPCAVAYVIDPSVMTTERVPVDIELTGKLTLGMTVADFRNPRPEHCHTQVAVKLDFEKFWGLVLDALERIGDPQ

Turning to `OC[C@H]1N[C@@H](c2ccccc2)[C@H](O)[C@@H]1O` [(2S)-phenyl-(3S,4R)-dihydroxy-(5R)-hydroxymethyl-pyrrolidine], on nucleoside hydrolase, the “binding better than the substrate inosine” value is recorded as “approximately 2,000 fold” and the inhibition pattern result is on record as “competitive inhibition pattern”. At nucleoside hydrolase (read-out: inhibition constant), the Ki stood at 0.15 µM.
With `OC[C@H]1NC[C@H](O)[C@@H]1O` [I], the inhibition pattern result on IU-nucleoside hydrolase [1] was “slope-linear competitive inhibitors”. Further, at IAG-nucleoside hydrolase, the Ki was 44 ± 4 µM and the “Km /KI IAG-nucleoside hydrolase” value stood at 0.41. Further, the Ki at IU-nucleoside hydrolase [2] (Table V, from Horenstein and Schramm (1993b), read-out: KI IU-nucleoside hydrolase) is 4.5 ± 0.4 µM.
Take `Nc1ccc([C@@H]2N[C@H](CO)[C@@H](O)[C@H]2O)cc1` [X]: the Ki at IU-nucleoside hydrolase [1] (setting [4]) worked out at 0.03 ± 0.002 µM. Moreover, at IAG-nucleoside hydrolase, the Ki is 12 ± 1 µM; the “Km /KI IAG-nucleoside hydrolase” value is given as 1.5; the “binding compared to inosine” value is reported as “binds as well as the preferred substrate, inosine”; the inhibition pattern result is listed as “competitive inhibition”.
Regarding `O=[N+]([O-])c1cccc([C@@H]2N[C@H](CO)[C@@H](O)[C@H]2O)c1` [III], on IU-nucleoside hydrolase [1] (setting [4]), the Ki was determined as 7.5 ± 0.5 µM. Also, on IAG-nucleoside hydrolase, the Ki is > 360 µM, the “Km /KI IAG-nucleoside hydrolase” value is recorded as < 0.05 and the “inhibition at highest concentration tested” value was “NO inhibition was observed”.
For the molecule `OC[C@H]1O[C@@H](c2ccccc2)[C@H](O)[C@@H]1O` [XIII, 1-deoxy-1-C-phenyl-β-D-ribofuranose, reference compound], the Ki at IU-nucleoside hydrolase [1] (Ki IU-nucleoside hydrolase, Table VI, 58 μM nitrophenylriboside, 50 mM Hepes, pH 8.0) was 600 µM; on IU-nucleoside hydrolase [1] (inhibition constant IU-enzyme, text b399, unit inferred), 1600 µM; at IAG-nucleoside hydrolase, > 30000 µM; on IAG-nucleoside hydrolase (read-out: Ki IAG-nucleoside hydrolase, Table VI, XIII: 560 μM nitrophenylriboside, 50 mM Hepes, pH 8.0, lower limit), > 30000 µM. Further, the “decline of affinity relative to inosine” value at IAG-nucleoside hydrolase is given as > 1670 fold. In addition, the “binding / inhibition at 10 mM” value on IAG-nucleoside hydrolase (10 mM XIII) is given as “no binding can be detected”. The “Km /Ki IAG-nucleoside hydrolase” value on IAG-nucleoside hydrolase (Table VI) is < 0.0006.
In the case of `OC[C@H]1N[C@@H](c2ccccc2)[C@H](O)[C@@H]1O` [V, phenyliminoribitol], the inhibition pattern entry on IU-nucleoside hydrolase [1] is recorded as “slope-linear competitive inhibitors”; at IAG-nucleoside hydrolase, “competitive inhibition”. The Ki was 180 µM on IAG-nucleoside hydrolase; 0.3 µM on IU-nucleoside hydrolase [2] (read-out: KI IU-nucleoside hydrolase, from Horenstein and Schramm (1993b)); 0.3 µM at IU-nucleoside hydrolase [2] (read-out: Ki IU-nucleoside hydrolase, Table VI, taken from Horenstein and Schramm (1993b)). At IAG-nucleoside hydrolase, the “Km /KI IAG-nucleoside hydrolase” value stood at 0.1. Also, the “Km /Ki IAG-nucleoside hydrolase” value on IAG-nucleoside hydrolase (Table VI) worked out at 0.1.
Take `O=C(O)c1ccc([C@@H]2N[C@H](CO)[C@@H](O)[C@H]2O)cc1` [VI]: on IU-nucleoside hydrolase [1] (setting [4]), the Ki came to 0.096 ± 0.007 µM. Besides, at IAG-nucleoside hydrolase, the Ki was > 480 µM, the “Km /KI IAG-nucleoside hydrolase” value was < 0.04 and the “inhibition at highest concentration tested” value is “NO inhibition was observed”.
On to `OC[C@H]1N[C@@H](c2ccc(F)cc2)[C@H](O)[C@@H]1O` [VIII], for which the Ki came to 0.057 ± 0.005 µM at IU-nucleoside hydrolase [1] (setting [4]) and 205 ± 14 µM on IAG-nucleoside hydrolase. Moreover, on IU-nucleoside hydrolase [1], the inhibition pattern entry is “slope-linear competitive inhibitors”. In addition, on IAG-nucleoside hydrolase, the “Km /KI IAG-nucleoside hydrolase” value was 0.088.
On to `O=[N+]([O-])c1ccc([C@@H]2N[C@H](CO)[C@@H](O)[C@H]2O)cc1` [IV], for which, at IU-nucleoside hydrolase [1] (setting [4]), the Ki came to 1.1 ± 0.1 µM. On IAG-nucleoside hydrolase, the Ki is > 360 µM, the “Km /KI IAG-nucleoside hydrolase” value was < 0.05 and the “inhibition at highest concentration tested” value was “NO inhibition was observed”.

B1: IAG-nucleoside hydrolase (Trypanosoma brucei brucei TREU927) (protein)
chain: MAKTVILDHDGNKDDFVAMILLLSNPKKVNLIGCICTDADCFVENGFDVTGKIMCAMHRLIKTPLFPIGKSTATAVNAFPTEWRFSAKNLDDMPFLNIVEDVALWEKLKPENEAHNGQQLLADLVMKSKEKVTVCVTGPLSNMAWCIEKYGEAFTSKVEECVIMGGAVDVGGNVFLPTTDGSAEWNIYWDPPAAKKVLCCPNIRCVLFSLDATNTVPVRSVDVKGFGAQNQYLLSQMVGTMWAMSTHEEILRDGDAYYAWDALTAAYILEPTIATLEPVALDVDVSKGKSEGRTPRASGEGKPCVHVARNPSKQMFHDLVFASTRVC
Take B1: the Km (as a rule, the concentration of substrate that gives half-maximal velocity) in data set [3] was found to be 18 ± 1 µM.
